The target in data set [1] is Voltage-dependent calcium channel subunit alpha-2/delta-1 (Homo sapiens, UniProt P54289). The data set can be described thus: Binding affinity for huamn alpha2-delta1 subunit of voltage gated calcium channel over-expressed in A710 cell membranes using [3H]-gabapentin.
Data set [2] is described as follows: Half-life period was determined in rats at 20 mg/kg, i.p. dose. Format: ADME, organism-based. Also on record: dose 20 mg/kg, route intraperitoneal. To be noted: rat, in vivo, ip.
A short description of data set [3]: Half-life period was determined in rats at 2 mg/kg, i.v. dose. Format: ADME, organism-based. Also on record: dose 2 mg/kg, route intravenous. To be noted: rat, in vivo, iv.
In data set [4] the test system is Rattus norvegicus. The data set can be described thus: Time required by compound for reaching maximum plasma concentration was determined in rats at 20 mg/kg, i.p. dose. Format: ADME, organism-based. Also on record: dose 20 mg/kg, route intraperitoneal. To be noted: in vivo, ip.
A short description of data set [5]: Maximum plasma concentration in rats at 10 mg/kg, p.o. dose. Format: ADME, organism-based. Also on record: dose 10 mg/kg, route oral. To be noted: rat, po.
The nature of data set [6]: Plasma concentration was determined in rats at 10 mg/kg, p.o. dose. Format: ADME, organism-based. Further details: dose 10 mg/kg, route oral. To be noted: rat, po.
Data set [7] is described as follows: Volume of distribution at steady state was determined in rats at 2 mg/kg, i.v. dose. To be noted: rat, in vivo, iv, read-out: Vdss. Also on record: dose 2 mg/kg, route intravenous. The class given is ADME, organism-based.
The nature of data set [8]: Plasma clearance rate was determined in rats at 2 mg/kg, i.v. dose. The class given is ADME, organism-based. Further details: dose 2 mg/kg, route intravenous. To be noted: rat, iv, read-out: Clp.
The nature of data set [9]: Bioavailability was determined in rats at 10 mg/kg, p.o. dose. Format: ADME, organism-based. To be noted: rat, in vivo, po.
Data set [10] relates to Rattus norvegicus. The data set can be described thus: Time required by compound for reaching maximum plasma concentration was determined in rats at 10 mg/kg, p.o. dose. Also on record: dose 10 mg/kg, route oral. To be noted: in vivo, po. The class given is ADME, organism-based.
Data set [11] in a line: Plasma concentration was determined in rats at 20 mg/kg, i.p. dose. Format: ADME, organism-based. Also on record: dose 20 mg/kg, route intraperitoneal. To be noted: rat, ip.
A short description of data set [12]: Plasma concentration was determined in rats at 2 mg/kg, i.v. dose. To be noted: rat, iv. Further details: dose 2 mg/kg, route intravenous. The class given is ADME, organism-based.
A short description of data set [13]: Half-life period was determined in rats at 10 mg/kg, p.o. dose. Format: ADME, organism-based. Also on record: dose 10 mg/kg, route oral. To be noted: rat, in vivo, po.
Data set [14] in a line: Maximum plasma concentration in rats at 20mg/kg, i.p. dose. The class given is ADME, organism-based. Also on record: dose 20 mg/kg, route intraperitoneal. To be noted: rat, ip.

Sequence of Voltage-dependent calcium channel subunit alpha-2/delta-1 (P54289 25-956 limits assumed): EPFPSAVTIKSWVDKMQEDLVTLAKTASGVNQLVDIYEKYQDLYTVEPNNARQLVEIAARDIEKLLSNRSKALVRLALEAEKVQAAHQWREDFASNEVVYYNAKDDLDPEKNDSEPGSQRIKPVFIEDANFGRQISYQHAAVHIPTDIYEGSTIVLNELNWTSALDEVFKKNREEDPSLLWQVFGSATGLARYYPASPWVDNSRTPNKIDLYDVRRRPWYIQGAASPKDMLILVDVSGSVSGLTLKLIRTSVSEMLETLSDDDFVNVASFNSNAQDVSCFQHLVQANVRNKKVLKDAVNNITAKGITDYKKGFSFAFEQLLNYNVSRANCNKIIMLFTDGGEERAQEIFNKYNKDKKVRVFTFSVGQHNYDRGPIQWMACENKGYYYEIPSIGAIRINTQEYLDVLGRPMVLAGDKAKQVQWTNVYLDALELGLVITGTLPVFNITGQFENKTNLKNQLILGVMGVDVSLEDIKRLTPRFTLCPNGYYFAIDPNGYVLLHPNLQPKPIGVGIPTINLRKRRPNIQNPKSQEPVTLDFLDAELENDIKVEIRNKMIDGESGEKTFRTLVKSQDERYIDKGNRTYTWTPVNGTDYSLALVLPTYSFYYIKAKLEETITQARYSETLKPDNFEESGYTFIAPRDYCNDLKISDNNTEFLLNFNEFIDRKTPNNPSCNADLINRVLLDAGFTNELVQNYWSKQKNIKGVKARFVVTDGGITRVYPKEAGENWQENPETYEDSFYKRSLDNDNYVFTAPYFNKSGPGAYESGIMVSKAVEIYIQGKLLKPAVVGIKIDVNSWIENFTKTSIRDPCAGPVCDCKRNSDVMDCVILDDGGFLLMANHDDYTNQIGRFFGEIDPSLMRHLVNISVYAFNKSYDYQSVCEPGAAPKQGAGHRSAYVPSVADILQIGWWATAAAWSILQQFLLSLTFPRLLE
Sequence of Voltage-dependent calcium channel subunit alpha-2/delta-1 (P54289 957-1103 limits assumed): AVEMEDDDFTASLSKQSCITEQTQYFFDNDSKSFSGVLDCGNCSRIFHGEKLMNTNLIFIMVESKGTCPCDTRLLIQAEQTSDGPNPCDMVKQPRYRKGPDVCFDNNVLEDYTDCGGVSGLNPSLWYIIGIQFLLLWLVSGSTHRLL

With `CCOc1ccc(-n2c(C)c3c(C)nnc(-c4ccc(CC)cc4)c3c2C)cc1`, in data set [1], the IC50 was 107 nM. Still for that read-out and setting: to `CCOc1ccc(-n2c(C)c3c(C)nnc(-c4ccccc4Cl)c3c2C)cc1` belongs 4370 nM; to `CCOc1ccc(-n2c(C)c3c(C)nnc(CC(C)CC(C)(C)C)c3c2C)cc1` (stereo not drawn), 577 nM. The same measure, in the same setting: to `CCOc1ccc(-n2c(C)c3c(C)nnc(Nc4ccc(OC)cc4)c3c2C)cc1` belongs 440 nM; to `CCCCCc1nnc(C)c2c(C)n(-c3ccc(OCC)cc3)c(C)c12`, 360 nM; to `CCOc1ccc(-n2c(C)c3c(C)nnc(CCC4CCCC4)c3c2C)cc1`, 148 nM. Regarding `COc1ccc(-n2c(C)c3c(C)nnc(C)c3c2C)cc1`, in data set [1], the IC50 was above 10000 nM. The same measure, in the same setting: to `CCOc1ccc(-n2c(C)c3c(C)nnc(-c4ccc(OC(F)(F)F)cc4)c3c2C)cc1` belongs 1730 nM. Regarding `CCOc1ccc(-n2c(C)c3c(C)nnc(-c4cccc(Cl)c4)c3c2C)cc1`, in data set [1], the IC50 was 1600 nM. Still for that read-out and setting: then `CCOc1ccc(-n2c(C)c3c(C)nnc(Nc4ccc(C)cc4)c3c2C)cc1`, with 240 nM; and `CCOc1ccc(-n2c(C)c3c(C)nnc(-c4ccc(-c5ccccc5)cc4)c3c2C)cc1`, with 1260 nM. The same measure, in the same setting: to `CCOc1ccc(-n2c(C)c3c(C)nnc(N(C)C)c3c2C)cc1` belongs 170 nM; to `CCOc1ccc(-n2c(C)c3c(C)nnc(CC4CCCC4)c3c2C)cc1`, 211 nM; to `CCOc1ccc(-n2c(C)c3c(C)nnc(C4CCCCC4)c3c2C)cc1`, 235 nM. Same read-out and setting: to `CCOc1ccc(-n2c(C)c3c(C)nnc(C4CC4)c3c2C)cc1` belongs 170 nM; to `CCOc1ccc(-n2c(C)c3c(C)nnc(OC)c3c2C)cc1`, 2180 nM. Turning to `CCOc1ccc(-n2c(C)c3c(C)nnc(-c4cccc(OC)c4)c3c2C)cc1`, the 50% inhibitory concentration (IC50) in data set [1] amounted to 335 nM.

In the case of `CCOc1ccc(-n2c(C)c3c(C)nnc(C)c3c2C)cc1`, the half-life in data set [2] was 1.2 h; in [3] it was 0.91 h; in data set [13], 4.5 h. In addition, the values for the T max in the data set with Rattus norvegicus [4] and in the data set with Rattus norvegicus [10] were 0.3 h and 2.8 h, respectively. For the same molecule, the Cmax in data set [5] was found to be 3.6 µM; in data set [14], 101 µM. Besides, the values for the exposure (AUC) in [6], in data set [11] and in data set [12] were 27 µM·h, 141 µM·h and 6.4 µM·h, respectively. In addition, in data set [7], the Vd was 1.3 L/kg. Further, in data set [8], the clearance amounted to 18.5 mL/min/kg. Further, the bioavailability in [9] is 81%. For the same molecule, in data set [1], the IC50 stood at 180 nM. Regarding `CCOc1ccc(-n2c(C)c3c(C)nnc(-c4ccc(Cl)cc4)c3c2C)cc1`, the IC50 in [1] was 701 nM. Same read-out and setting: then `CCOc1ccc(-n2c(C)c3c(C)nnc(CC(C)C)c3c2C)cc1`, with 171 nM; and `CCOc1ccc(-n2c(C)c3c(C)nnc(-c4ccc(C)cc4)c3c2C)cc1`, with 86 nM; and `CCOc1ccc(-n2c(C)c3c(C)nnc(CCC(C)C)c3c2C)cc1`, with 263 nM. Same read-out and setting: then `CCOc1ccc(-c2nnc(C)c3c(C)n(-c4ccc(OCC)cc4)c(C)c23)cc1`, with 153 nM.

`CCOc1ccc(-n2c(C)c3c(C)nnc(Nc4ccccc4)c3c2C)cc1`: the IC50 in data set [1] was determined as 75 nM. As to `CCOc1ccc(-n2c(C)c3c(C)nnc(-c4ccc(OC)cc4OC)c3c2C)cc1`, the IC50 in data set [1] was 597 nM.

Take `CCOc1ccc(-n2c(C)c3c(C)nnc(Nc4ccc(N)cc4)c3c2C)cc1`: the IC50 in [1] is above 10000 nM.

As for `CCOc1ccc(-n2c(C)c3c(C)nnc(-c4ccc(F)cc4)c3c2C)cc1`, in [1], the IC50 was determined as 528 nM.

As for `CCOc1ccc(-n2c(C)c3c(C)nnc(-c4ccccc4)c3c2C)cc1`, in data set [1], the IC50 was 382 nM.

As for `CCOc1ccc(-n2c(C)c3c(C)nnc(-c4ccccc4OC)c3c2C)cc1`, in data set [1], the 50% inhibitory concentration (IC50) came to 737 nM. The same measure, in the same setting: then `CCOc1ccc(-n2c(C)c3c(C)nnc(C4CCCC4)c3c2C)cc1`, with 185 nM; and `CCOc1ccc(-n2c(C)c3c(C)nnc(CC)c3c2C)cc1`, with 250 nM. On the same count and under the same terms, then `CCOc1ccccc1-n1c(C)c2c(C)nnc(C)c2c1C`, with 1850 nM; and `CCOc1ccc(-n2c(C)c3c(C)nnc(NC)c3c2C)cc1`, with 40 nM; and `CCOc1ccc(-n2c(C)c3c(C)nnc(Nc4ccncc4)c3c2C)cc1`, with above 10000 nM.

Take `CCOc1cccc(-n2c(C)c3c(C)nnc(C)c3c2C)c1`: the IC50 in data set [1] is above 10000 nM.

The record behind these values is ChEMBL document CHEMBL1137964, “Synthesis and biological evaluation of 6-aryl-6H-pyrrolo[3,4-d]pyridazine derivatives: high-affinity ligands to the alpha 2 delta subunit of voltage gated calcium channels” (Bioorg Med Chem Lett, 2004).
